Source: patent publication US7868163B2, “Adenyl dinucleotides with antitumour activity and a method of preparing thereof” (Universita' Degli Studi Di Genova, priority 2005, dated 2011)
Where two headings read alike, the source gives them in different places.

Key:
HEP-G2 = experiment: MTT reduction proliferation assay, HEP-G2; format: cell-based, human; conditions: HEP-G2 hepatocarcinoma, 24 hours
Protocol: (§1) The effect of P18 and P24 on the proliferation of several cell lines was determined by the MTT reduction assay (Mosmann, T. (1983) J. Immunol. Methods 65, 55-63). […] After 24 hours, 10 μl of a 5 mg/ml solution of MTT were added to each well and the plates incubated for a further 2 hours. The supernatant was then removed from each well and the blue crystals produced by the reduction of the dye were dissolved in DMSO (200 μl/well). The optical absorbance at 570 nm was determined with a BioRad microplate reader.
(§2) In these experiments, cells were seeded onto 96 well plates (3×10^4 cells per well) and incubated in the presence of increasing concentrations of P18 or P24. After 24 hours, the percentage of viable cells was evaluated by spectrophotometric measurement of the concentration of reduced MTT (see Materials and Methods). The means of at least three separate experiments are shown (s.d.≦20% of the mean value). The production of P18 and P24 by human CD38 cyclase, with inhibitory effects on colony growth, together with cADPR, with stimulatory effect, may be at least partly responsible for the colony growth inhibition observed during long term culture of human HP cells on CD38^+ stroma. […]

CD38^+ HeLa = experiment: MTT reduction proliferation assay, CD38+ HeLa; format: cell-based, human; conditions: 24 hours
Protocol: as §1, §2

HL60 = experiment: MTT reduction proliferation assay, HL60; format: cell-based, human; conditions: HL60 promyelocytic leukemia, 24 hours
Protocol: (§3) The effect of P18 and P24 on the proliferation of several cell lines was determined by the MTT reduction assay (Mosmann, T. (1983) J. Immunol. Methods 65, 55-63). Briefly, cells were seeded at a concentration of 3×10^4/well in flat-bottomed 96-well plates and grown in complete medium in the presence of various concentrations (ranging between 20 and 0.4 μM) of purified dinucleotides. After 24 hours, 10 μl of a 5 mg/ml solution of MTT were added to each well and the plates incubated for a further 2 hours. The supernatant was then removed from each well and the blue crystals produced by the reduction of the dye were dissolved in DMSO (200 μl/well). The optical absorbance at 570 nm was determined with a BioRad microplate reader.
(§4) In these experiments, cells were seeded onto 96 well plates (3×10^4 cells per well) and incubated in the presence of increasing concentrations of P18 or P24. After 24 hours, the percentage of viable cells was evaluated by spectrophotometric measurement of the concentration of reduced MTT (see Materials and Methods). The means of at least three separate experiments are shown (s.d.≦20% of the mean value). […]

CD38^− HeLa = experiment: MTT reduction proliferation assay, CD38- HeLa; format: cell-based, human; conditions: 24 hours
Protocol: as §1, §2

K562 = experiment: MTT reduction proliferation assay, K562; format: cell-based, human; conditions: K562 proerythroblastic leukemia, 24 hours
Protocol: as §3, §4

HCT-8 = experiment: MTT reduction proliferation assay, HCT-8; format: cell-based, human; conditions: HCT-8 colon carcinoma, 24 hours
Protocol: as §1, §2

CD38^+ HeLa cells = experiment: Intracellular calcium assay (FURA 2-AM), CD38+ HeLa; format: cell-based, human; conditions: 10 μM for 18 hours; for tapsigargine-induced release of calcium from ER stores [Ca^2+]i: 1 μM tapsigargine
Protocol: Adherent CD38^+ and CD38^− human HeLa cells on 20 mm-diameter coverslips were incubated in complete medium in the presence of […] P18 or P24 for […]. The cells were then washed, incubated with 6 μM Fura 2-acetoxymethyl ester (FURA 2-AM) in standard saline (135 mM NaCl, 5.4 mM KCl, 1.8 mM CaCl2, 1 mM MgCl2, 5 mM Hepes, 10 mM glucose, pH 7.4) for 45 minutes at 37° C. and then washed several times with saline. Calcium measurements were performed in a 200-μl chamber mounted on an inverted microscope, as described in detail in Zocchi E., et al. (1998) J. Biol. Chem. 273, 8017-8024. After determination of basal [Ca^2+]i levels, 1 μM tapsigargine was added to induce the release of calcium from tapsigargine-sensitive stores ([…]). The parameter values needed for calibration were obtained at the end of the experimental measurements, as described in Zocchi E., et al. (1998) J. Biol. Chem. 273, 8017-8024.
Basal cytosolic calcium and tapsigargine-induced release of calcium from […] (ER) stores (in bold in Table 4) were measured in CD38^+ and CD38^− HeLa cells loaded with FURA 2-AM and incubated in the absence (control) or in the presence of P18 or P24 at a concentration of 10 μM for 18 hours. The results obtained, expressed as [Ca^2+]I nanomolarity, are summarised in Table 4, showing mean results from 8 separate experiments (s.d.≦15% of the mean value).

[1] = system: CFC (colony forming cells); experiment: CFC colony growth from cord blood mononuclear cells in semi-solid medium; format: cell-based, human; conditions: for IC50: read-out: IC50, inhibition of CFC colony growth; for reduction of toxicity by digestion with NPP and CIP: FIG. 4, CFC growth
Protocol: Mononuclear cells isolated from cord blood were incubated in the presence of various concentrations of P18 (▴), P24 (▪) and the iso-adenosine units resulting from the enzymatic digestion of P18 (Δ) and P24 (□). After 24 hours, aliquots of cells (1-2×10^4) were seeded in semi-solid medium to allow for colony growth. Results are expressed as percentage of inhibition of colony growth compared with controls, represented by cells incubated with the same dilution of chromatographic buffer as present in the HPLC-purified compounds. The IC50 values were obtained from the logarithmic regression curves (R≧0.97). The results shown in this figure are the mean from at least three different experiments.
Mononuclear cells were isolated from cord blood (CB MNC) by a density gradient, washed by centrifugation and resuspended in complete medium (Mosmann, T. (1983) J. Immunol. Methods 65, 55-63). Cells (10^6/ml) were incubated for 24 hours in complete medium in the presence of different dinucleotides at concentrations comprised between 20 and 0.4 μM. Then, aliquots of cells (1-2×10^4) were seeded in semi-solid medium, supplemented with haemopoietic growth factors (Methocult, Stem Cell Technologies, Vancouver, BC), in order to allow colonies to develop. After 2 weeks in culture, the colonies which were grown were microscopically identified according to standard criteria (CFU-E, CFU-GM and CFU-GEM) and counted: each colony identifies a colony forming cell (CFC).

CD38^− cells = experiment: Uptake of extracellularly added dinucleotides in CD38- cells; format: in vitro ADME, human; conditions: 15 μM added extracellularly
[2] = 24 hours incubation of cord blood mononuclear cells, colonies counted after 2 weeks

| SMILES | IC50 (HEP-G2) | IC50 (CD38^+ HeLa) | IC50 (HL60) | IC50 (CD38^− HeLa) | IC50 (K562) | IC50 (HCT-8) | ER stores-calcium, % of the control (CD38^+ HeLa cells) | basal [Ca^2+]i, % of the control (CD38^+ HeLa cells) | basal cytosolic free calcium [Ca^2+]i (CD38^+ HeLa cells) | tapsigargine-induced release of calcium from ER stores [Ca^2+]i (CD38^+ HeLa cells) | IC50 ([1]; 2 hours of incubation) | IC50 [1, 2] | reduction of toxicity by digestion with NPP and CIP [1] | rate of increase of intracellular concentration (uptake) (CD38^− cells) |
| --- | --- | --- | --- | --- | --- | --- | --- | --- | --- | --- | --- | --- | --- | --- |
| Nc1ncnc2c1ncn2[C@@H]1O[C@H](COP(=O)(O)OP(=O)(O)OC[C@H]2O[C@@H](n3cnc4ncnc-4c3N)[C@H](O)[C@@H]2O)[C@@H](O)[C@H]1O [P18] | 78 µM | 120 µM | 26 µM | 150 µM | 44 µM | 65 µM | 48% | 41% | 16 nM | 123 nM | 30 µM | 1 µM | 40 fold | approx. 2.4 pmol/min/mg |
| Nc1ncn([C@@H]2O[C@H](COP(=O)(O)OP(=O)(O)OC[C@H]3O[C@@H](n4cnc5c(N)ncnc54)[C@H](O)[C@@H]3O)[C@@H](O)[C@H]2O)c2ncnc1-2 [P24] | 18.2 µM | 9.1 µM | 2 µM | 9.8 µM | 5.8 µM | 27 µM | 80% | 154% | 57 nM | 203 nM |  | 0.18 µM | 30 fold | approx. 2.4 pmol/min/mg |
